Format in all cases: cell-based
The test system of test [1] is multi-resistant Staphylococcus aureus 18-206. Kind of test: Paper diffusion drug sensitivity test, multi-resistant Staphylococcus aureus 18-206. The conditions noted are these: for Zone of inhibition: Multi-resistant Staphylococcus aureus 18-206, 30 μg/tablet paper disc, LB plate, 37° C., 24 h; for inhibitory effect (in words): multi-drug resistant Staphylococcus aureus 18-206, FIGS. 1-3 and Table 1. As for the experimental part:
(§1) The antimicrobial efficacy was determined by a paper diffusion drug sensitivity test.
(§2) Experimental strains: multi-resistant Staphylococcus aureus 18-206, multi-resistant Staphylococcus aureus 18-222, multi-resistant Staphylococcus aureus 18-596. The experimental strain was identified by Huashan Hospital Affiliated to Fudan University (Institute of Antibiotic of Fudan University).
(§3) Drug sensitive paper: The drug sensitive paper is a special drug sensitive paper with a diameter of 6.35 mm and a water absorption of 0.02 mL. The control drug was vancomycin (30μg/tablet); the test drugs were pleuromulin (30 μg/tablet), lipoic acid (30 μg/tablet) and pleuromulin lipoic acid ester (30 μg/tablet).
(§4) Reagents: LB agar medium, LA broth medium, 0.5% DMSO solution.
(§5) The experimental strains were inoculated in non-selective medium and placed in air at 37° C. for 24 h. Pick a single colony that grows well and inoculate it into broth medium, incubate at 35° C.±2° C. for 6 hours, and use LA broth medium to calibrate the concentration of the bacterial solution to 0.5 Mie turbidimetric tube (1.5×10^8 CFU/mL). A bacterial suspension is obtained.
(§6) Weigh the LB dry powder, sterilize at 103.4 Kpa, 121.3° C. high-pressure steam for 15 min, and then put it in a 40° C.-50° C. water bath. Place a sterile empty plate (inner diameter 9 cm) on the surface of the ultra-clean table water table, shake and shake LB, and then pour the plate. The thickness of each plate is 3 mm to 4 mm. After the plate is cooled at room temperature, store it in the refrigerator at 2° C.-8° C. Use a sterile cotton swab to dip the bacterial solution, and evenly coat the surface of the LB plate 3 times. After inoculation of the bacterial suspension, the LB plate was dried at room temperature for 3 min to 5 min. Use sterile forceps to closely attach the antibacterial drug paper to the dish. Put the dish upside down and place it in a 37° C. incubator for 24 h. Observe the result and measure the diameter. Taking 0.5% DMSO solution as a negative control, the antibacterial activity is expressed by the diameter of the inhibition zone. The inhibition zone 17 mm, sensitive; the inhibition zone is 15 mm-16 mm, intermediary; the inhibition zone 14 mm, drug resistance.

Test [2] deals with multi-resistant Staphylococcus aureus 18-222. The test is described as follows: Paper diffusion drug sensitivity test, multi-resistant Staphylococcus aureus 18-222. As to conditions: for Zone of inhibition: Multi-resistant Staphylococcus aureus 18-222, 30 μg/tablet paper disc, LB plate, 37° C., 24 h; for inhibitory effect (in words): multi-drug resistant Staphylococcus aureus 18-222, FIGS. 1-3 and Table 1. The protocol:
as §1, §2, §3, §4, §5, §6

The subject of test [3] is multi-resistant Staphylococcus aureus 18-596. The test is described as follows: Paper diffusion drug sensitivity test, multi-resistant Staphylococcus aureus 18-596. The conditions noted are these: for Zone of inhibition: Multi-resistant Staphylococcus aureus 18-596, 30 μg/tablet paper disc, LB plate, 37° C., 24 h; for inhibitory effect (in words): multi-drug resistant Staphylococcus aureus 18-596, FIGS. 1-3 and Table 1. The protocol:
as §1, §2, §3, §4, §5, §6

With `O=C(O)CCCC[C@@H]1CCSS1` (racemic) [Lipoic acid], the Zone of inhibition in test [1], in test [2] and in test [3] was 0 mm each time. The “inhibitory effect (in words)” value in test [1], in test [2] and in test [3] was “no inhibitory effect” in each case.
In the case of `C=C[C@]1(C)C[C@@H](OC(=O)COC(=O)CCCCC2CCSS2)[C@]2(C)CC[C@@H](C)[C@@]3(CCC(=O)[C@@H]23)[C@@H](C)[C@@H]1O` (stereo partly drawn) [Pleuromulin lipoic acid ester, 2-(((3aS,4R,5S,6S, 8R,9R,9aR,12R)-5-hydroxy-4,6,9,12-tetramethyl-1-oxo-6-vinyldecahydro-3 a, 9-propanocyclopenta[8]annulen-8-yl)oxy)-2-oxoethyl 5-(1,2-dithiolan-3-yl)pentanoate], the Zone of inhibition in test [1] is on record as 16 mm; in test [2], 16 mm; in test [3], 20 mm. For the same compound, the “inhibitory effect (in words)” value in test [1], in test [2] and in test [3] was “strong inhibitory effects” throughout. The “diameter of bacteriostatic zone” value in test [3] (multidrug resistant Staphylococcus aureus 18-596) is “up to 21 mm”.
Regarding `C=C[C@]1(C)C[C@@H](OC(=O)CO)[C@]2(C)[C@H](C)CC[C@]3(CCC(=O)[C@H]32)[C@@H](C)[C@@H]1O` [Pleuromulin], the Zone of inhibition in test [1], in test [2] and in test [3] was 0 mm in each case. Moreover, the “inhibitory effect (in words)” value in test [1], in test [2] and in test [3] was “no inhibitory effect” in each case.
On to `CN[C@H](CC(C)C)C(=O)N[C@H]1C(=O)N[C@@H](CC(N)=O)C(=O)N[C@H]2C(=O)N[C@H]3C(=O)N[C@H](C(=O)N[C@H](C(=O)O)c4cc(O)cc(O)c4-c4cc3ccc4O)[C@H](O)c3ccc(c(Cl)c3)Oc3cc2cc(c3O[C@@H]2O[C@H](CO)[C@@H](O)[C@H](O)[C@H]2O[C@H]2C[C@](C)(N)[C@H](O)[C@H](C)O2)Oc2ccc(cc2Cl)[C@H]1O` [Vancomycin], for which the Zone of inhibition in test [1] stood at 17 mm; in test [2] it was 18 mm; in test [3], 21 mm.
